Experimental data from ChEMBL document CHEMBL4138123, “Design, synthesis and biological evaluation of novel pyrazolochalcones as potential modulators of PI3K/Akt/mTOR pathway and inducers of apoptosis in breast cancer cells” (Eur J Med Chem, 2017).

Assays:
Format in all cases: functional
HT-29 [1] = experiment: Cytotoxicity against human HT-29 cells assessed as cell growth at 0.01 uM after 48 hrs by sulforhodamine B assay relative to control; conditions: HT-29, 48 h, read-out: Activity
Hs-578T = experiment: Cytotoxicity against human Hs 578T cells assessed as cell growth at 0.1 uM after 48 hrs by sulforhodamine B assay relative to control; conditions: read-out: Activity
OVCAR-8 = experiment: Cytotoxicity against human OVCAR8 cells assessed as cell growth at 0.1 uM after 48 hrs by sulforhodamine B assay relative to control; conditions: OVCAR-8, 48 h, read-out: Activity
SF-539 [2] = experiment: Cytotoxicity against human SF539 cells assessed as cell growth at 1 uM after 48 hrs by sulforhodamine B assay relative to control; conditions: SF-539, 48 h, read-out: Activity
HOP-62 [3] = experiment: Cytotoxicity against human HOP62 cells assessed as cell growth at 0.1 uM after 48 hrs by sulforhodamine B assay relative to control; conditions: HOP-62, 48 h, read-out: Activity
MDA-MB-468 [4] = experiment: Cytotoxicity against human MDA-MB-468 cells assessed as cell growth at 100 uM after 48 hrs by sulforhodamine B assay relative to control; conditions: MDA-MB-468, 48 h, read-out: Activity
UACC-62 [5] = experiment: Cytotoxicity against human UACC62 cells assessed as cell growth at 1 uM after 48 hrs by sulforhodamine B assay relative to control; conditions: UACC-62, 48 h, read-out: Activity
NCI/ADR-RES = experiment: Cytotoxicity against human NCI/ADR-RES cells assessed as cell growth at 10 uM after 48 hrs by sulforhodamine B assay relative to control; conditions: read-out: Activity
M14 = experiment: Cytotoxicity against human M14 cells assessed as cell growth at 1 uM after 48 hrs by sulforhodamine B assay relative to control; conditions: M14, 48 h, read-out: Activity
MDA-MB-468 [6] = experiment: Cytotoxicity against human MDA-MB-468 cells assessed as cell growth at 0.01 uM after 48 hrs by sulforhodamine B assay relative to control; conditions: MDA-MB-468, 48 h, read-out: Activity
MDA-MB-231 [7] = experiment: Cytotoxicity against human MDA-MB-231 cells assessed as growth inhibition after 48 hrs by sulforhodamine B assay; conditions: MDA-MB-231, 48 h
OVCAR-4 = experiment: Cytotoxicity against human OVCAR4 cells assessed as cell growth at 10 uM after 48 hrs by sulforhodamine B assay relative to control; conditions: OVCAR-4, 48 h, read-out: Activity
SW-620 = experiment: Cytotoxicity against human SW620 cells assessed as cell growth at 1 uM after 48 hrs by sulforhodamine B assay relative to control; conditions: SW-620, 48 h, read-out: Activity
MDA-MB-231 [8] = experiment: Cytotoxicity against human MDA-MB-231 cells assessed as cell growth at 100 uM after 48 hrs by sulforhodamine B assay relative to control; conditions: MDA-MB-231, 48 h, read-out: Activity
MDA-MB-231 [9] = experiment: Cytotoxicity against human MDA-MB-231 cells assessed as cell growth at 0.1 uM after 48 hrs by sulforhodamine B assay relative to control; conditions: MDA-MB-231, 48 h, read-out: Activity
K562 = experiment: Cytotoxicity against human K562 cells assessed as growth inhibition after 48 hrs by sulforhodamine B assay; conditions: K562, 48 h
RPMI-8226 = experiment: Cytotoxicity against human RPMI8226 cells assessed as cell growth at 0.1 uM after 48 hrs by sulforhodamine B assay relative to control; conditions: RPMI-8226, 48 h, read-out: Activity
UACC-62 [10] = experiment: Cytotoxicity against human UACC62 cells assessed as cell growth at 10 uM after 48 hrs by sulforhodamine B assay relative to control; conditions: UACC-62, 48 h, read-out: Activity
SF-539 [11] = experiment: Cytotoxicity against human SF539 cells assessed as cell growth at 10 uM after 48 hrs by sulforhodamine B assay relative to control; conditions: SF-539, 48 h, read-out: Activity
ACHN = experiment: Cytotoxicity against human ACHN cells assessed as cell growth at 0.01 uM after 48 hrs by sulforhodamine B assay relative to control; conditions: read-out: Activity
Malme-3M = experiment: Cytotoxicity against human MALME-3M cells assessed as cell growth at 1 uM after 48 hrs by sulforhodamine B assay relative to control; conditions: read-out: Activity
MDA-MB-231 [12] = experiment: Cytotoxicity against human MDA-MB-231 cells assessed as cell growth at 10 uM after 48 hrs by sulforhodamine B assay relative to control; conditions: MDA-MB-231, 48 h, read-out: Activity
RXF 393 = experiment: Cytotoxicity against human RXF393 cells assessed as cell growth at 0.01 uM after 48 hrs by sulforhodamine B assay relative to control; conditions: RXF 393, 48 h, read-out: Activity
SF-268 [13] = experiment: Cytotoxicity against human SF268 cells assessed as cell growth at 100 uM after 48 hrs by sulforhodamine B assay relative to control; conditions: SF-268, 48 h, read-out: Activity
HOP-62 [14] = experiment: Cytotoxicity against human HOP62 cells assessed as cell growth at 100 uM after 48 hrs by sulforhodamine B assay relative to control; conditions: HOP-62, 48 h, read-out: Activity
HT-29 [15] = experiment: Cytotoxicity against human HT-29 cells assessed as growth inhibition after 48 hrs by sulforhodamine B assay; conditions: HT-29, 48 h
HCC 2998 = experiment: Cytotoxicity against human HCC2998 cells assessed as cell growth at 100 uM after 48 hrs by sulforhodamine B assay relative to control; conditions: HCC 2998, 48 h, read-out: Activity
DU-145 = experiment: Cytotoxicity against human DU145 cells assessed as cell growth at 0.1 uM after 48 hrs by sulforhodamine B assay relative to control; conditions: DU-145, 48 h, read-out: Activity
NCI-H522 = experiment: Cytotoxicity against human NCI-H522 cells assessed as cell growth at 1 uM after 48 hrs by sulforhodamine B assay relative to control; conditions: NCI-H522, 48 h, read-out: Activity
MDA-MB-435 = experiment: Cytotoxicity against human MDA-MB-435 cells assessed as cell growth at 100 uM after 48 hrs by sulforhodamine B assay relative to control; conditions: MDA-MB-435, 48 h, read-out: Activity
SK-MEL-5 = experiment: Cytotoxicity against human SK-MEL-5 cells assessed as growth inhibition after 48 hrs by sulforhodamine B assay; conditions: SK-MEL-5, 48 h
SK-MEL-28 = experiment: Cytotoxicity against human SK-MEL-28 cells assessed as cell growth at 0.01 uM after 48 hrs by sulforhodamine B assay relative to control; conditions: SK-MEL-28, 48 h, read-out: Activity
HL-60(TB) = experiment: Cytotoxicity against human HL-60(TB) cells assessed as cell growth at 1 uM after 48 hrs by sulforhodamine B assay relative to control; conditions: HL-60, 48 h, read-out: Activity
SF-268 [16] = experiment: Cytotoxicity against human SF268 cells assessed as cell growth at 10 uM after 48 hrs by sulforhodamine B assay relative to control; conditions: SF-268, 48 h, read-out: Activity
SF-268 [17] = experiment: Cytotoxicity against human SF268 cells assessed as cell growth at 1 uM after 48 hrs by sulforhodamine B assay relative to control; conditions: SF-268, 48 h, read-out: Activity
A549 = experiment: Cytotoxicity against human A549/ATCC cells assessed as cell growth at 10 uM after 48 hrs by sulforhodamine B assay relative to control; conditions: A549, 48 h, read-out: Activity

Which results are given for COc1ccc(-c2cc(/C=C/C(=O)c3ccc(N)cc3)[nH]n2)cc1OC?
growth at 0.01 µM (HT-29 [1]): 98%; growth at 0.1 µM (Hs-578T): 93%; growth at 0.1 µM (OVCAR-8): 99%; growth at 1 µM (SF-539 [2]): 88%; growth at 0.1 µM (HOP-62 [3]): 91%; growth at 100 µM (MDA-MB-468 [4]): -73%; growth at 1 µM (UACC-62 [5]): 95%; growth at 10 µM (NCI/ADR-RES): 37%; growth at 1 µM (M14): 101%; growth at 0.01 µM (MDA-MB-468 [6]): 94%; GI50 (MDA-MB-231 [7]): 4.42 µM; LC50 (MDA-MB-231 [7]): 53.9 µM; TGI (MDA-MB-231 [7]): 17.2 µM; growth at 10 µM (OVCAR-4): 24%; growth at 1 µM (SW-620): 95%; growth at 100 µM (MDA-MB-231 [8]): -77%; growth at 0.1 µM (MDA-MB-231 [9]): 107%; GI50 (K562): 2.03 µM; LC50 (concentration killing 50% of cells) (K562): > 100 µM; TGI (K562): 36.4 µM; growth at 0.1 µM (RPMI-8226): 96%; growth at 10 µM (UACC-62 [10]): 3%; growth at 10 µM (SF-539 [11]): -73%; growth at 0.01 µM (ACHN): 93%; growth at 1 µM (Malme-3M): 114%; growth at 10 µM (MDA-MB-231 [12]): 24%; growth at 0.01 µM (RXF 393): 99%; growth at 100 µM (SF-268 [13]): -80%; growth at 100 µM (HOP-62 [14]): -98%; GI50 (HT-29 [15]): 2.6 µM; LC50 (HT-29 [15]): 58.9 µM; TGI (HT-29 [15]): 6.91 µM; growth at 100 µM (HCC 2998): -91%; growth at 0.1 µM (DU-145): 110%; growth at 1 µM (NCI-H522): 87%; growth at 100 µM (MDA-MB-435): -72%; GI50 (SK-MEL-5): 3.16 µM; LC50 (concentration killing 50% of cells) (SK-MEL-5): 36.1 µM; TGI (SK-MEL-5): 11.5 µM; growth at 0.01 µM (SK-MEL-28): 92%; growth at 1 µM (HL-60(TB)): 97%; growth at 10 µM (SF-268 [16]): -49%; growth at 1 µM (SF-268 [17]): 88%

For COc1ccc(-c2cc(/C=C/C(=O)c3ccc4c(c3)OCO4)[nH]n2)cc1OC, which GI50 (MDA-MB-231 [7]) is on record?
The GI50 was 1.88 µM.

And the GI50 (K562)?
The GI50 was 0.61 µM.

And the GI50 (HT-29 [15])?
The GI50 was 1.38 µM.

And the GI50 (SK-MEL-5)?
Its GI50 is 1.58 µM.

Which results are given for COc1cc(-c2cc(/C=C/C(=O)c3ccc(Cl)c(Cl)c3)[nH]n2)cc(OC)c1OC?
growth at 0.01 µM (HT-29 [1]): 100%; growth at 0.1 µM (Hs-578T): 105%; growth at 0.1 µM (OVCAR-8): 97%; growth at 1 µM (SF-539 [2]): 88%; growth at 0.1 µM (HOP-62 [3]): 101%; growth at 100 µM (MDA-MB-468 [4]): -37%; growth at 1 µM (UACC-62 [5]): 96%; growth at 10 µM (NCI/ADR-RES): 51%; growth at 1 µM (M14): 107%; growth at 0.01 µM (MDA-MB-468 [6]): 94%; LC50 (MDA-MB-231 [7]): > 100 µM; TGI (MDA-MB-231 [7]): > 100 µM; growth at 10 µM (OVCAR-4): 52%; growth at 1 µM (SW-620): 91%; growth at 100 µM (MDA-MB-231 [8]): 2%; growth at 0.1 µM (MDA-MB-231 [9]): 102%; LC50 (concentration killing 50% of cells) (K562): > 100 µM; TGI (K562): 64.4 µM; growth at 10 µM (A549): 68%; growth at 0.1 µM (RPMI-8226): 95%; growth at 10 µM (UACC-62 [10]): 63%; growth at 10 µM (SF-539 [11]): 28%; growth at 0.01 µM (ACHN): 107%; growth at 1 µM (Malme-3M): 95%; growth at 10 µM (MDA-MB-231 [12]): 47%; growth at 0.01 µM (RXF 393): 96%; growth at 100 µM (SF-268 [13]): -15%; growth at 100 µM (HOP-62 [14]): -74%; LC50 (HT-29 [15]): > 100 µM; TGI (HT-29 [15]): > 100 µM; growth at 100 µM (HCC 2998): -50%; growth at 1 µM (NCI-H522): 67%; growth at 100 µM (MDA-MB-435): 6%; LC50 (concentration killing 50% of cells) (SK-MEL-5): > 100 µM; TGI (SK-MEL-5): 46.9 µM; growth at 0.01 µM (SK-MEL-28): 108%; growth at 1 µM (HL-60(TB)): 90%; growth at 10 µM (SF-268 [16]): 60%; growth at 1 µM (SF-268 [17]): 92%
